Laboratory results: BigSolDB 2.1

CN1CCN(C2=Nc3cc(Cl)ccc3Nc3ccccc32)CC1
solubility (mole fraction)
Conditions	278.15 K	283.15 K	288.15 K	293.15 K	298.15 K	303.15 K	308.15 K	313.15 K	318.15 K	323.15 K
in 2-butanone	0.0216	0.0242	0.0274	0.0303	0.0339	0.0374	0.0416	0.0458	0.0505	0.0558
in DMF	0.0953	0.1	0.106	0.112	0.117	0.123	0.129	0.135	0.141	0.148
in THF	0.0624	0.0668	0.0716	0.0765	0.0815	0.0866	0.0919	0.0978	0.103	0.109
in acetone	0.0116	0.0133	0.0151	0.0172	0.0197	0.0223	0.0251	0.0283	0.0323	0.0363
in acetonitrile	0.00213	0.00234	0.0026	0.00285	0.00316	0.00344	0.0038	0.00413	0.00452	0.0049
in chloroform	0.0625	0.0652	0.0681	0.0712	0.0741	0.0771	0.0801	0.0837	0.0871	0.0905
in ethanol	0.00533	0.0059	0.0066	0.00735	0.00811	0.0089	0.00988	0.0108	0.0119	0.0131
in ethyl acetate	0.0109	0.0121	0.0135	0.0152	0.0169	0.0191	0.0209	0.0232	0.0256	0.0283
in ethyl formate	0.032	0.0343	0.0367	0.0393	0.0419	0.0443	0.047	0.0499	0.0527	0.0564
in isobutanol	0.00666	0.00731	0.00809	0.00888	0.00987	0.0108	0.0119	0.013	0.0142	0.0155
in isopentanol	0.0083	0.00932	0.0103	0.0116	0.0128	0.0142	0.0156	0.0173	0.019	0.0212
in isopropanol	0.00278	0.00322	0.00367	0.00419	0.00487	0.00544	0.00615	0.00693	0.00781	0.00894
in methanol	0.00633	0.00702	0.00766	0.00839	0.00921	0.00999	0.0109	0.012	0.013	0.014
in methyl acetate	0.0124	0.0141	0.0158	0.0173	0.019	0.021	0.0229	0.0251	0.0277	0.0303
in n-butanol	0.00796	0.00891	0.01	0.0113	0.0126	0.0141	0.0154	0.0172	0.0189	0.0208
in n-pentanol	0.00905	0.0102	0.0115	0.0128	0.0143	0.0159	0.0174	0.0193	0.0213	0.0231
in n-propanol	0.00708	0.00814	0.00924	0.0105	0.0118	0.0134	0.0148	0.0164	0.0183	0.0204
in sec-butanol	0.0046	0.00509	0.00566	0.00617	0.0068	0.00744	0.00812	0.00893	0.00975	0.0107
